Experiments:
Conditions in all cases: incubation time: 72 h
[1] = tested on: BT-549; assay: drug sensitivity score (DSS), CellTox Green (DSS (AUC-based score)); higher = stronger drug effect (viability inhibition or cytotoxicity); extreme values may be limits of the assay
Summary of the method: (§1)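 After 72 h of incubation in 384-well plates with compound at 5 concentrations (10-fold steps, 10,000-fold range set per compound), breast cancer cell lines seeded in 20 µl suspension were read first for CellTox Green fluorescence at 485/520 nm. CellTiter-Glo luminescence was measured next, after 10 min at room temperature. Normalisation on each plate used 0.1 % DMSO and a positive kill control, and the drug sensitivity score was computed from the area under the fitted dose-response curve.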

[2] = tested on: MDA-MB-453; assay: as above
Summary of the method: as §1

[3] = tested on: HCC1599; assay: as above
Summary of the method: as §1

[4] = tested on: MDA-MB-436; assay: as above
Summary of the method: as §1

[5] = tested on: CAL-120; assay: as above
Summary of the method: as §1

[6] = tested on: MCF-10A; assay: as above
Summary of the method: as §1

[7] = tested on: HCC1937; assay: as above
Summary of the method: as §1

[8] = tested on: CAL-148; assay: as above
Summary of the method: as §1

[9] = tested on: HDQ-P1; assay: as above
Summary of the method: as §1

[10] = tested on: HCC1143; assay: as above
Summary of the method: as §1

[11] = tested on: MDA-MB-468; assay: as above
Summary of the method: as §1

[12] = tested on: MDA-MB-231; assay: as above
Summary of the method: as §1

[13] = tested on: CAL-51; assay: as above
Summary of the method: as §1

[14] = tested on: BT-474; assay: as above
Summary of the method: as §1

[15] = tested on: Hs578T; assay: as above
Summary of the method: as §1

[16] = tested on: DU-4475; assay: as above
Summary of the method: as §1

[17] = tested on: MFM-223; assay: as above
Summary of the method: as §1

[18] = tested on: CAL-85-1; assay: as above
Summary of the method: as §1

[19] = tested on: BT-549; assay: normalised viability (% of control), CellTiter-Blue; higher = more viable cells (about 100 = DMSO control)
Summary of the method: (§2)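 Plates were quality-checked by Z'-factor and normalised to vehicle (100) and a positive kill control (0). The underlying assay incubated breast cancer cell lines for 72 h on 384-well plates with compound, then added 2.5 µl CellTiter-Blue for 2 h at 37 °C and read at 560/590 nm. The value is normalised viability at a single listed concentration of the series.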

[20] = tested on: MDA-MB-453; assay: as above
Summary of the method: as §2

[21] = tested on: HCC1937; assay: as above
Summary of the method: as §2

[22] = tested on: CAL-51; assay: as above
Summary of the method: as §2

[23] = tested on: BT-474; assay: as above
Summary of the method: as §2

[24] = tested on: DU-4475; assay: as above
Summary of the method: as §2

Row | SMILES | drug sensitivity score [1] | drug sensitivity score [2] | drug sensitivity score [3] | drug sensitivity score [4] | drug sensitivity score [5] | drug sensitivity score [6] | drug sensitivity score [8] | drug sensitivity score [9] | drug sensitivity score [10] | drug sensitivity score [13] | drug sensitivity score [14] | drug sensitivity score [15] | drug sensitivity score [16] | drug sensitivity score [17] | drug sensitivity score [18] | normalised viability ([19]; 1000 nM) | normalised viability ([20]; 3 nM) | normalised viability ([21]; 1000 nM) | normalised viability ([22]; 3 nM) | normalised viability ([23]; 1000 nM) | also measured
1 | CN(c1ccccc1CNc1nc(Nc2ccc3c(c2)CC(=O)N3)ncc1C(F)(F)F)S(C)(=O)=O | 0.974 | 0 | 1.23 | 0 | 0 | 9.63 | 0 | 9.69 | 5.18 | 17.6 | 0 | 10.4 | 0 | 0 | 3.86 |  |  |  |  |  | drug sensitivity score [7]: 0; drug sensitivity score [11]: 0; drug sensitivity score [12]: 8.46
2 | O=c1[nH]cc(F)c(=O)[nH]1 [Fluorouracil] | 0 | 0 | 0 | 0.291 | 0 | 0 | 0 | 0 | 0 | 0 | 0 | 0 | 0 | 0 | 0 | 90.3% | 113% | 112% | 105% | 108% | drug sensitivity score [7]: 0; drug sensitivity score [12]: 0; normalised viability ([19]; 10 nM): 101%; normalised viability ([19]; 10000 nM): 74.2%; normalised viability ([20]; 30 nM): 106%; normalised viability ([20]; 100 nM): 99.1%; normalised viability ([21]; 10 nM): 90.6%; normalised viability ([21]; 10000 nM): 75.3%; normalised viability ([22]; 30 nM): 100%; normalised viability ([22]; 100 nM): 92.9%; normalised viability ([23]; 10 nM): 108%; normalised viability ([23]; 10000 nM): 94%; normalised viability ([24]; 3 nM): 120%; normalised viability ([24]; 30 nM): 103%; normalised viability ([24]; 100 nM): 85.6%
3 | c1ccc(C2CN3CCSC3=N2)cc1 (stereo not given) [Tetramisole] |  |  |  |  |  |  |  |  |  |  |  |  |  |  |  | 85.6% | 93.6% | 105% | 85.4% | 137% | normalised viability ([19]; 10 nM): 105%; normalised viability ([19]; 10000 nM): 89.1%; normalised viability ([20]; 30 nM): 104%; normalised viability ([20]; 100 nM): 98.5%; normalised viability ([21]; 10 nM): 117%; normalised viability ([21]; 10000 nM): 103%; normalised viability ([22]; 30 nM): 92.1%; normalised viability ([22]; 100 nM): 89.6%; normalised viability ([23]; 10 nM): 111%; normalised viability ([23]; 10000 nM): 107%; normalised viability ([24]; 3 nM): 91.1%; normalised viability ([24]; 30 nM): 99.9%; normalised viability ([24]; 100 nM): 101%
4 | Cn1cnc2c(F)c(Nc3ccc(Br)cc3F)c(C(=O)NOCCO)cc21 [MEK-162] | 0 | 0 | 0 | 0 | 0 | 0 | 1.61 | 1.87 | 0 | 0 | 0 | 0 | 1.92 | 3.03 | 0 | 108% | 94% | 88.5% | 104% | 119% | drug sensitivity score [11]: 0; normalised viability ([19]; 1 nM): 100%; normalised viability ([19]; 100 nM): 110%; normalised viability ([20]; 0.3 nM): 115%; normalised viability ([20]; 10 nM): 110%; normalised viability ([21]; 1 nM): 72.6%; normalised viability ([21]; 100 nM): 94.8%; normalised viability ([22]; 0.3 nM): 112%; normalised viability ([22]; 10 nM): 100%; normalised viability ([23]; 1 nM): 119%; normalised viability ([23]; 100 nM): 115%; normalised viability ([24]; 0.3 nM): 100%; normalised viability ([24]; 3 nM): 94%; normalised viability ([24]; 10 nM): 78.1%

Reference: the supplement of paper PMC4862054
